Assay: Biodistribution study in LNCaP tumor-bearing mice (Th227 counted in organs)
Format: in vivo, SCID mice
Summary of the method: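 SCID mice bearing testosterone pellets and subcutaneous LNCaP flank tumors (~50 mm^2) received a single intravenous dose of the radioactive compound. At set time points, n=3 animals were sacrificed, and organs were removed, weighed and counted for Th227 on a Germanium detector.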

**Q.** What does the source list for O=C([O-])CN1CCN(CC(=O)[O-])CCN(CC(=O)NCC2CCC(C(=O)NC(Cc3ccc4ccccc4c3)C(=O)NCCCCC(NC(=O)NC(CCC(=O)O)C(=O)O)C(=O)O)CC2)CCN(CC(=O)[O-])CC1.[227Th+4] [Example 1-B-227Th, [^227Th]Thorium (3S,10S,14S)-3-[(naphthalen-2-yl)methyl]-1,4,12-trioxo-1-{(1r,4S)-4-[(2-{4,7,10-tris[(carboxy-kappaO)methyl]-1,4,7,10-tetraazacyclododecan-1-yl-kappa^4N^1,N^4,N^7,N^10}acetamido)methyl]cyclohexyl}-2,5,11,13-tetraazahexadecane-10,14,16-tricarboxylate]?
**A.** Th-227 in Spleen (6 hr, 500 kBq/kg, study b2999): 0.73 % ID Th-227/g organ; Th-227 in Tumor (6 hr, 500 kBq/kg, study b2999): 9.80 % ID Th-227/g organ; Th-227 in prostate (6 hr, 500 kBq/kg, study b2999): 6.41 % ID Th-227/g organ; Th-227 in Blood (24 h, 500 kBq/kg, study b2999): 0.01 % ID Th-227/g organ; Th-227 in Femur and tibia (24 h, 500 kBq/kg, study b2999): 0.23 % ID Th-227/g organ; Th-227 in Kidneys (24 h, 500 kBq/kg, study b2999): 26.81 % ID Th-227/g organ; Th-227 in Liver (24 h, 500 kBq/kg, study b2999): 0.18 % ID Th-227/g organ; Th-227 in Salivary gland (24 h, 500 kBq/kg, study b2999): 1.24 % ID Th-227/g organ; Th-227 in Spleen (24 h, 500 kBq/kg, study b2999): 0.33 % ID Th-227/g organ; Th-227 in Tumor (24 h, 500 kBq/kg, study b2999): 14.45 % ID Th-227/g organ; Th-227 in prostate (24 h, 500 kBq/kg, study b2999): 0.00 % ID Th-227/g organ; Th-227 in Blood (24 h, 1500 kBq/kg): 0.02% ID Th-227/g organ; Th-227 in Liver (24 h, 1500 kBq/kg): 1.05% ID Th-227/g organ; Th-227 in Spleen (24 h, 1500 kBq/kg): 1.24% ID Th-227/g organ; Th-227 in Tumor (24 h, 1500 kBq/kg): 9.81% ID Th-227/g organ; Th-227 in bone (24 h, 1500 kBq/kg): 9.38% ID Th-227/g organ; Th-227 in brain (24 h, 1500 kBq/kg): 0.00% ID Th-227/g organ; Th-227 in kidney (24 h, 1500 kBq/kg): 11.30% ID Th-227/g organ; Th-227 in large intestine (24 h, 1500 kBq/kg): 0.12% ID Th-227/g organ; Th-227 in lung (24 h, 1500 kBq/kg): 0.50% ID Th-227/g organ; Th-227 in muscle (24 h, 1500 kBq/kg): 0.16% ID Th-227/g organ; Th-227 in prostate (24 h, 1500 kBq/kg): 0.00% ID Th-227/g organ; Th-227 in salivary glands (24 h, 1500 kBq/kg): 0.32% ID Th-227/g organ; Th-227 in small intestine (24 h, 1500 kBq/kg): 0.23% ID Th-227/g organ; Th-227 in Blood (72 h, 500 kBq/kg, study b2999): 0.00 % ID Th-227/g organ; Th-227 in Femur and tibia (72 h, 500 kBq/kg, study b2999): 0.33 % ID Th-227/g organ; Th-227 in Kidneys (72 h, 500 kBq/kg, study b2999): 19.30 % ID Th-227/g organ; Th-227 in Liver (72 h, 500 kBq/kg, study b2999): 0.26 % ID Th-227/g organ; Th-227 in Salivary gland (72 h, 500 kBq/kg, study b2999): 0.73 % ID Th-227/g organ; Th-227 in Spleen (72 h, 500 kBq/kg, study b2999): 0.92 % ID Th-227/g organ; Th-227 in Tumor (72 h, 500 kBq/kg, study b2999): 21.94 % ID Th-227/g organ; Th-227 in prostate (72 h, 500 kBq/kg, study b2999): 0.00 % ID Th-227/g organ; Th-227 in Blood (96 h, 1500 kBq/kg): 0.00% ID Th-227/g organ; Th-227 in Liver (96 h, 1500 kBq/kg): 1.56% ID Th-227/g organ; Th-227 in Spleen (96 h, 1500 kBq/kg): 2.79% ID Th-227/g organ; Th-227 in Tumor (96 h, 1500 kBq/kg): 10.02% ID Th-227/g organ; Th-227 in bone (96 h, 1500 kBq/kg): 10.31% ID Th-227/g organ; Th-227 in brain (96 h, 1500 kBq/kg): 0.00% ID Th-227/g organ; Th-227 in kidney (96 h, 1500 kBq/kg): 1.96% ID Th-227/g organ; Th-227 in large intestine (96 h, 1500 kBq/kg): 0.12% ID Th-227/g organ; Th-227 in lung (96 h, 1500 kBq/kg): 0.55% ID Th-227/g organ; Th-227 in muscle (96 h, 1500 kBq/kg): 0.08% ID Th-227/g organ; Th-227 in prostate (96 h, 1500 kBq/kg): 0.00% ID Th-227/g organ; Th-227 in salivary glands (96 h, 1500 kBq/kg): 0.42% ID Th-227/g organ; Th-227 in small intestine (96 h, 1500 kBq/kg): 0.21% ID Th-227/g organ; Th-227 in Blood (168 h, 500 kBq/kg, study b2999): 0.00 % ID Th-227/g organ; Th-227 in Femur and tibia (168 h, 500 kBq/kg, study b2999): 0.18 % ID Th-227/g organ; Th-227 in Kidneys (168 h, 500 kBq/kg, study b2999): 3.56 % ID Th-227/g organ; Th-227 in Liver (168 h, 500 kBq/kg, study b2999): 0.21 % ID Th-227/g organ; Th-227 in Salivary gland (168 h, 500 kBq/kg, study b2999): 0.00 % ID Th-227/g organ; Th-227 in Spleen (168 h, 500 kBq/kg, study b2999): 0.31 % ID Th-227/g organ; Th-227 in Tumor (168 h, 500 kBq/kg, study b2999): 9.80 % ID Th-227/g organ; Th-227 in prostate (168 h, 500 kBq/kg, study b2999): 0.00 % ID Th-227/g organ; Th-227 in Blood (336 h, 500 kBq/kg, study b2999): 0.00 % ID Th-227/g organ; Th-227 in Femur and tibia (336 h, 500 kBq/kg, study b2999): 0.25 % ID Th-227/g organ; Th-227 in Kidneys (336 h, 500 kBq/kg, study b2999): 0.78 % ID Th-227/g organ; Th-227 in Liver (336 h, 500 kBq/kg, study b2999): 0.17 % ID Th-227/g organ; Th-227 in Salivary gland (336 h, 500 kBq/kg, study b2999): 0.00 % ID Th-227/g organ; Th-227 in Spleen (336 h, 500 kBq/kg, study b2999): 0.15 % ID Th-227/g organ; Th-227 in Tumor (336 h, 500 kBq/kg, study b2999): 7.78 % ID Th-227/g organ; Th-227 in prostate (336 h, 500 kBq/kg, study b2999): 0.00 % ID Th-227/g organ
